Experiment [1] concerns the target T1, Alpha-2A adrenergic receptor (Homo sapiens, UniProt P08913).
T1 sequence (P08913 whole entry): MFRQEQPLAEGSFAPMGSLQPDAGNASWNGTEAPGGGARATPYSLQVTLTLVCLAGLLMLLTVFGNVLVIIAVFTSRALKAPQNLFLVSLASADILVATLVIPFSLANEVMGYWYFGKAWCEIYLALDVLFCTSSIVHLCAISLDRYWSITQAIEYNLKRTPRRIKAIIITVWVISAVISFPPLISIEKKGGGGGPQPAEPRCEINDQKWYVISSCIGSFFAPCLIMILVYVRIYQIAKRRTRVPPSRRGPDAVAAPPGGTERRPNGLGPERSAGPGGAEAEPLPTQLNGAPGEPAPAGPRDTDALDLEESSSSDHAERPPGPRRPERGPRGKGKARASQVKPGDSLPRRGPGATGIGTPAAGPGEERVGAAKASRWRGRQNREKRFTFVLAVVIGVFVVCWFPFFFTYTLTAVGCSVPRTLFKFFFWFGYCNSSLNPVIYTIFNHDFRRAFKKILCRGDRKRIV
It is filed as functional, cell-based.

Experiment [2] deals with T1, Alpha-2A adrenergic receptor. It is filed as functional, cell-based. The source holds these as a separate data set.
The target of experiment [3] is T2, Gastrin/cholecystokinin type B receptor (Homo sapiens, UniProt P32239).
T2 sequence (P32239 whole entry): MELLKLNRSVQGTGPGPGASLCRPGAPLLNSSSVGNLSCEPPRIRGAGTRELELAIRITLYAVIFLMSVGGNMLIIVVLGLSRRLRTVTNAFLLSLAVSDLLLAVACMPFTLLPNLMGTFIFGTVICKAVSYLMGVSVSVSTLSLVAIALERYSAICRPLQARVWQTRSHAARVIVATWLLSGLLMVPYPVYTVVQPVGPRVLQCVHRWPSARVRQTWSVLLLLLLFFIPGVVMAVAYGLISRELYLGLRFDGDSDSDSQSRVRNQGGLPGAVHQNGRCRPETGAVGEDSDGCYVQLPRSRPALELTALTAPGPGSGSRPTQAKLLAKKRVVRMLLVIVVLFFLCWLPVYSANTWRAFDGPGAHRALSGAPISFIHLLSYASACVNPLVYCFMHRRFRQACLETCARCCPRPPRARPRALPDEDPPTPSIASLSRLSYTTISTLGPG

Experiment [4] concerns the target T3, Muscarinic acetylcholine receptor M1 (Homo sapiens, UniProt P11229).
T3 sequence (P11229 whole entry): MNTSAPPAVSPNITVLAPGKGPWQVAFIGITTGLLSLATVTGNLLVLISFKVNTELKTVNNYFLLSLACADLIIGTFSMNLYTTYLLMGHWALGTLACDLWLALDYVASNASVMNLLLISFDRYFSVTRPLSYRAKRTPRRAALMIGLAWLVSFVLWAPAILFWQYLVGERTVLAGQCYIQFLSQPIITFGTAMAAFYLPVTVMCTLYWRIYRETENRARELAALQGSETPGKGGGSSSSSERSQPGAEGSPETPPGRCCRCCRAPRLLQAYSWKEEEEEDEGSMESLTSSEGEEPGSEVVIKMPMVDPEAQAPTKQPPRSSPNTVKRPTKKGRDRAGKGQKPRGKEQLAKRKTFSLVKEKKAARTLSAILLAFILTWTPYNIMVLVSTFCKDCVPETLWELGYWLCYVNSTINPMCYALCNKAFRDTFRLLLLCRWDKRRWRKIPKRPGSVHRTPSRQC
It is filed as functional.

Experiment [5] deals with Muscarinic acetylcholine receptor M3 (Homo sapiens, UniProt P20309).
Experiment [6] addresses T4, 5-hydroxytryptamine receptor 1A (Homo sapiens, UniProt P08908).
T4 sequence (P08908 whole entry): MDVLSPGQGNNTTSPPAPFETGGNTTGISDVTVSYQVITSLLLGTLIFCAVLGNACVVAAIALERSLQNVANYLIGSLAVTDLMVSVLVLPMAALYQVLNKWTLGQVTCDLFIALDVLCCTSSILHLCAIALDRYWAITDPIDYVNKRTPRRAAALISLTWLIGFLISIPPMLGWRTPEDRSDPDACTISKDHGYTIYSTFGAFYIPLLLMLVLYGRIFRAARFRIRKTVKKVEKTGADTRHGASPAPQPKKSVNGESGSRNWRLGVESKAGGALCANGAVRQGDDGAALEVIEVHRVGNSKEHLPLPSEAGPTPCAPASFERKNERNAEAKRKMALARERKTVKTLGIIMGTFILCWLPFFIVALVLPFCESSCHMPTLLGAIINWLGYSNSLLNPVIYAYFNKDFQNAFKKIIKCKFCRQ
It is filed as functional, cell-based.

The target in experiment [7] is Voltage-gated inwardly rectifying potassium channel KCNH2 (Homo sapiens, UniProt Q12809). Format: functional.
The target in another experiment is Mu-type opioid receptor (Homo sapiens, UniProt P35372). As to the kind of experiment: biochemical. Format: functional.
The next experiment deals with T5, Thromboxane A2 receptor (Homo sapiens, UniProt P21731).
T5 sequence (P21731 whole entry): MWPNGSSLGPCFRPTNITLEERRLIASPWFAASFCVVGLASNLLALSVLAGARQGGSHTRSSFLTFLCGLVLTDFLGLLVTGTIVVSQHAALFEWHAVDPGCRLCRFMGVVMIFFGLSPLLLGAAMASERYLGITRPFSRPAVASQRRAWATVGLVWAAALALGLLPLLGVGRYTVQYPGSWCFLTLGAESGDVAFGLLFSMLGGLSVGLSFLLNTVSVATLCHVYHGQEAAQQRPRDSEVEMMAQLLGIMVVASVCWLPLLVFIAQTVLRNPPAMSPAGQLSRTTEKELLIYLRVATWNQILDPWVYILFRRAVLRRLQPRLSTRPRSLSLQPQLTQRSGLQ

Experiment [8] addresses cGMP-inhibited 3',5'-cyclic phosphodiesterase 3A (Homo sapiens, UniProt Q14432). It is filed as functional.
The next experiment has as its target D(3) dopamine receptor (Homo sapiens, UniProt P35462).

Structures are written as SMILES. Where only a bound is given, the exact number is not on record here.

A word on the AC50: it is the concentration giving half of the maximal activity seen. High values mean weaker potency, low ones greater potency.
Also: assay procedure not described here.

Chain of cGMP-inhibited 3',5'-cyclic phosphodiesterase 3A (Q14432 whole entry): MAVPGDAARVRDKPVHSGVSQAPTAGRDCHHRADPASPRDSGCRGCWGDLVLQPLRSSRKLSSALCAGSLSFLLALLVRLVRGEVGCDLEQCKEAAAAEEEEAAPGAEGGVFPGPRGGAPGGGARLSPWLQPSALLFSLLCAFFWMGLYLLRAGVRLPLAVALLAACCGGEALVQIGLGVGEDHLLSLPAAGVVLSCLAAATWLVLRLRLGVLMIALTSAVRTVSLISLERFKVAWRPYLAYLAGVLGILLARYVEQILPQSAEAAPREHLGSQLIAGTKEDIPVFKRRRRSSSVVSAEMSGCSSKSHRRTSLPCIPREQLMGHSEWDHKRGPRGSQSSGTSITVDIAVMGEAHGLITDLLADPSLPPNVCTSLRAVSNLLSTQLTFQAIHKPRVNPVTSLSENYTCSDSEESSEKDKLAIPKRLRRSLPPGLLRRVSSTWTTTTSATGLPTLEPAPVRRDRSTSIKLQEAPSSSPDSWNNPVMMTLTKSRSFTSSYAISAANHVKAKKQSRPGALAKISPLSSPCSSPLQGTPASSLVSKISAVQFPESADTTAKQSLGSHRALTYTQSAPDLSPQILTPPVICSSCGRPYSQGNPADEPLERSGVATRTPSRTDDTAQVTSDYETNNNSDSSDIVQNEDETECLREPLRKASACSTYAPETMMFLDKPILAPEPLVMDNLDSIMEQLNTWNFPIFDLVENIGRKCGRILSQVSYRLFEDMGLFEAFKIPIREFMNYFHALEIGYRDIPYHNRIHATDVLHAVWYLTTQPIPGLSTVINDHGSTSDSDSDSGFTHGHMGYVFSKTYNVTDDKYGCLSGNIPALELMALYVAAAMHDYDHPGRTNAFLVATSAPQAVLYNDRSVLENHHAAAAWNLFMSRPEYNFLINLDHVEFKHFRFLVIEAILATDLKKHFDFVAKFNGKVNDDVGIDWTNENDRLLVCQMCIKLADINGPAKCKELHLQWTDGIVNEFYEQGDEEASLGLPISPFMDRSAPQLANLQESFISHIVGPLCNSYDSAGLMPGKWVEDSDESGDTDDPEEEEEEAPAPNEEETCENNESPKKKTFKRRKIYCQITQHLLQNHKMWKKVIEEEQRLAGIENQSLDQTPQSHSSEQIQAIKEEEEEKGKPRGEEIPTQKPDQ
Chain of Voltage-gated inwardly rectifying potassium channel KCNH2 (Q12809 whole entry): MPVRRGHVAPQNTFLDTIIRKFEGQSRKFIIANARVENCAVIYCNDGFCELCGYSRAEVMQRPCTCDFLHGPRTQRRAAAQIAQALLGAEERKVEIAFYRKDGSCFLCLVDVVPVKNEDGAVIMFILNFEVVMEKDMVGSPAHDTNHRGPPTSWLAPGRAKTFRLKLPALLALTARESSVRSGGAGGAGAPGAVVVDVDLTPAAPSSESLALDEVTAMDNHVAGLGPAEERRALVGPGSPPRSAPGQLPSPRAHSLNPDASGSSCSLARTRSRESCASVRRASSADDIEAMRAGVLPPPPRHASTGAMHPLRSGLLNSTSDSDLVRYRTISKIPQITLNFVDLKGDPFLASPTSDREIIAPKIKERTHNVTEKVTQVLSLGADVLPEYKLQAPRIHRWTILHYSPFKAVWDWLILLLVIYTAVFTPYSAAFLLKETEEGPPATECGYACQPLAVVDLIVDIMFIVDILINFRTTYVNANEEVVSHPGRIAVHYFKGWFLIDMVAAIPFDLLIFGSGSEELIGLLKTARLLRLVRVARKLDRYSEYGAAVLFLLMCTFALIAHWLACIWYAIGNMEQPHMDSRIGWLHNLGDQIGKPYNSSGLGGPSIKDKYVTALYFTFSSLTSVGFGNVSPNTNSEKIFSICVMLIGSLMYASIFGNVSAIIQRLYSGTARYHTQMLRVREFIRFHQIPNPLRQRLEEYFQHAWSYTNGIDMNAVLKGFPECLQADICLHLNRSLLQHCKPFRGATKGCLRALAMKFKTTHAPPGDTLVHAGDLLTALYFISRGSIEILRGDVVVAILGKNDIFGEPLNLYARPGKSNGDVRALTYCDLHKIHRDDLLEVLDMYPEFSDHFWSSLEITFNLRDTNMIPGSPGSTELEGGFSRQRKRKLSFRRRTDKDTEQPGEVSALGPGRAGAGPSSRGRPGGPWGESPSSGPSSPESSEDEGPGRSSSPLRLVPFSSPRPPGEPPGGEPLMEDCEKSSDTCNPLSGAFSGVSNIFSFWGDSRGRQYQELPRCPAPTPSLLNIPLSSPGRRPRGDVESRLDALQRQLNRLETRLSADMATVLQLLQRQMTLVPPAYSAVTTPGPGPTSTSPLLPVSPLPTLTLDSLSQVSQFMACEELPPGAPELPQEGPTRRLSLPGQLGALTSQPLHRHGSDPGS
Chain of Mu-type opioid receptor (P35372 whole entry): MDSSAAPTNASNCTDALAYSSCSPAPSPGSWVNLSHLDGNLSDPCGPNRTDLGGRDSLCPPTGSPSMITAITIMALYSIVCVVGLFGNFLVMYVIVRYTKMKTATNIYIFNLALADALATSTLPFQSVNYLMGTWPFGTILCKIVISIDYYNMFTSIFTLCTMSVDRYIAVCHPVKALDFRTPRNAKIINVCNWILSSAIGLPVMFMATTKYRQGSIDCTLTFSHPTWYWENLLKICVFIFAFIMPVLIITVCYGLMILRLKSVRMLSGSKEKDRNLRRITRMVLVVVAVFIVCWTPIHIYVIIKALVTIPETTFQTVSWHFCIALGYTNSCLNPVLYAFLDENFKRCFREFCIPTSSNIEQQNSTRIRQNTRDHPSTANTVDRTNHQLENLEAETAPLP
Chain of D(3) dopamine receptor (P35462 whole entry): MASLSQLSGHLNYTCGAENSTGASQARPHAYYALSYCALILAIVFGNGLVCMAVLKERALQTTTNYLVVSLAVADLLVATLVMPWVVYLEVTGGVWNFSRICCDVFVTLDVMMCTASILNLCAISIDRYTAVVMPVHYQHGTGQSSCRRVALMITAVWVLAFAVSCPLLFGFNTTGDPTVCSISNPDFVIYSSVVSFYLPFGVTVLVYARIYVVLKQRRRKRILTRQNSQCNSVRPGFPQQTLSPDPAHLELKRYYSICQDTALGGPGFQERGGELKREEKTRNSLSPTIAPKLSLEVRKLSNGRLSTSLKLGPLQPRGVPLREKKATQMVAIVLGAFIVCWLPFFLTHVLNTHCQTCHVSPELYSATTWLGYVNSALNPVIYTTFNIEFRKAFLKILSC
Chain of Muscarinic acetylcholine receptor M3 (P20309 whole entry): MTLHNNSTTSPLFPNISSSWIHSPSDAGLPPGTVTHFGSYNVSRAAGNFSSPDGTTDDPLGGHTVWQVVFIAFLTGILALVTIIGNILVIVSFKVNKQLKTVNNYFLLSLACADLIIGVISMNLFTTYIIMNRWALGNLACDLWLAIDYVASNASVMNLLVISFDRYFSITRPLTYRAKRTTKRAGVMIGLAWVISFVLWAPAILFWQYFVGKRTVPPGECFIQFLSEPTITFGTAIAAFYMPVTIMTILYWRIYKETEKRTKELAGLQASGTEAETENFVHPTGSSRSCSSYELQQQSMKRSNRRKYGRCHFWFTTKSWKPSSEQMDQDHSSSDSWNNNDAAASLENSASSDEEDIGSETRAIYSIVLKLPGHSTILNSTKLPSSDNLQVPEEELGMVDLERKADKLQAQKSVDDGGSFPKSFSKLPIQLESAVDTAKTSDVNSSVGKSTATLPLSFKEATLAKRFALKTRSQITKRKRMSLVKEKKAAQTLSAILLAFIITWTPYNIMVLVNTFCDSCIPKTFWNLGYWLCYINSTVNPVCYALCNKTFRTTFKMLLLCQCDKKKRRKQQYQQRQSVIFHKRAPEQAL

With `CCC(COC(=O)c1cc(OC)c(OC)c(OC)c1)(c1ccccc1)N(C)C` (stereo unspecified) [TRIMEBUTINE], the AC50 in [1], in experiment [2], in experiment [3], in experiment [4], in experiment [5] and in experiment [6] was over 30 µM each time. The AC50 in experiment [7] was 1.7 µM; at Mu-type opioid receptor, 0.2 µM; on Thromboxane A2 receptor, over 30 µM; in experiment [8], over 30 µM; at D(3) dopamine receptor it was over 30 µM.

Regarding `CCCCCCCCCCCCCCCCCCCCCC(=O)Nc1ccn([C@@H]2O[C@H](CO)[C@@H](O)[C@@H]2O)c(=O)n1` [ENOCITABINE], the AC50 in experiment [1], in experiment [2], in experiment [3], in [4], in [5] and in experiment [6] was over 30 µM in each case. The AC50 (in experiment [7]; at Mu-type opioid receptor; at Thromboxane A2 receptor; in [8]; on D(3) dopamine receptor) was over 30 µM in each case.

In the case of `O=C(O)c1ccccc1Nc1cc(Cl)ccc1C(=O)O` [LOBENZARIT], the AC50 in [1] was over 30 µM; in experiment [2], over 30 µM; in experiment [3], over 10 µM; in [4], over 30 µM; in [5], over 30 µM; in experiment [6], over 30 µM. For the same molecule, the half-maximal activity concentration (AC50) (in experiment [7]; on Mu-type opioid receptor; at Thromboxane A2 receptor; in experiment [8]; on D(3) dopamine receptor) was over 30 µM each time.

On to `CC(=O)SC[C@@H](C)C(=O)N1CCC[C@H]1C(=O)N[C@@H](Cc1ccccc1)C(=O)O`, for which the AC50 in experiment [1], in experiment [2], in [3], in experiment [4], in experiment [5] and in experiment [6] was over 30 µM in each case. The AC50 (in experiment [7]; on Mu-type opioid receptor; on Thromboxane A2 receptor; in [8]; at D(3) dopamine receptor) was over 30 µM in each case.

Regarding `COc1ccc2nc3cc(Cl)ccc3c(Nc3cc(CN4CCCC4)c(O)c(CN4CCCC4)c3)c2n1` [PYRONARIDINE], the AC50 in [1] was over 30 µM; in experiment [2], over 30 µM; in experiment [3], over 30 µM; in experiment [4], over 30 µM; in experiment [5], 25 µM; in experiment [6], over 30 µM. For the same molecule, the concentration at half-maximal activity (AC50) was 0.28 µM in experiment [7]; over 30 µM on Mu-type opioid receptor; over 30 µM on Thromboxane A2 receptor; 5.7 µM in experiment [8]; 21 µM on D(3) dopamine receptor.

In the case of `CCCCCC(=O)O[C@]1(C(C)=O)CC[C@H]2[C@@H]3CCC4=CC(=O)CC[C@]4(C)[C@H]3CC[C@@]21C` [HYDROXYPROGESTERONE CAPROATE], the AC50 in experiment [1], in experiment [2], in experiment [3], in experiment [4], in experiment [5] and in [6] was over 30 µM each time. Besides, the AC50 in experiment [7] was over 30 µM; at Mu-type opioid receptor, over 30 µM; at Thromboxane A2 receptor it was over 30 µM; in experiment [8] it was 30 µM; on D(3) dopamine receptor, over 30 µM.

Consider `C#CCOc1ccc(N)cc1C(=O)NCCCC` [PARSALMIDE], for which the AC50 in experiment [1], in experiment [2], in experiment [3], in experiment [4], in experiment [5] and in experiment [6] was over 30 µM in each case. Moreover, the concentration at half-maximal activity (AC50) (in experiment [7]; at Mu-type opioid receptor; at Thromboxane A2 receptor; in experiment [8]; at D(3) dopamine receptor) was over 30 µM in each case.

As to `CCN(CC)C(=O)Nc1ccc(OCC(O)CNC(C)(C)C)c(C(C)=O)c1` (stereo unspecified) [CELIPROLOL], the AC50 in [1], in experiment [2], in experiment [3], in [4], in [5] and in experiment [6] was over 30 µM throughout. In addition, the AC50 is 17 µM in experiment [7]; over 30 µM on Mu-type opioid receptor; over 30 µM at Thromboxane A2 receptor; over 30 µM in experiment [8]; over 30 µM on D(3) dopamine receptor.

For `COc1ccc(-c2noc(CC(=O)O)c2-c2ccc(OC)cc2)cc1` [MOFEZOLAC], the concentration at half-maximal activity (AC50) in experiment [1] was over 30 µM; in experiment [2], over 30 µM; in experiment [3], over 10 µM; in experiment [4] it was over 30 µM; in experiment [5], over 30 µM; in [6], over 30 µM. For the same molecule, the AC50 in [7] is over 30 µM; at Mu-type opioid receptor, over 30 µM; at Thromboxane A2 receptor, over 30 µM; in experiment [8], 13 µM; at D(3) dopamine receptor, over 30 µM.

Regarding `CC(=O)O[C@H](CC(=O)[O-])C[N+](C)(C)C` [ACETYLCARNITINE], the AC50 in experiment [1], in experiment [2], in [3], in experiment [4], in experiment [5] and in experiment [6] was over 30 µM each time. Further, the AC50 (in experiment [7]; at Mu-type opioid receptor; at Thromboxane A2 receptor; in experiment [8]; at D(3) dopamine receptor) was over 30 µM in each case.

Turning to `CCOC(=O)O[C@]1(C(=O)OCCl)CC[C@H]2[C@@H]3CCC4=CC(=O)C=C[C@]4(C)[C@H]3[C@@H](O)C[C@@]21C` [LOTEPREDNOL ETABONATE], the concentration at half-maximal activity (AC50) in experiment [1], in experiment [2], in [3], in experiment [4], in [5] and in [6] was over 30 µM throughout. Further, the AC50 (in experiment [7]; at Mu-type opioid receptor; on Thromboxane A2 receptor; in experiment [8]; at D(3) dopamine receptor) was over 30 µM in each case.
